The record followed here is PubChem BioAssay (NCI).

The structures appear in SMILES notation. Several values for one entry are separate records, joined by “and”; a condition that tells them apart may be missing. Equal values may be shown once.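 Interpolation was linear, between the two tested concentrations surrounding the appropriate level; five concentrations were tested over 48 hours in 96-well plates. GI50 marks 50% less growth. The concentration for full growth arrest is given as TGI.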 *1 amine or outer side, *2 acyl side, *3 side chain or, on linkers, in order; H or OH if unused. Where a SMILES comes first, the peptide text is derived from it. [ ]: non-standard residue; d: D form. The star is where a group is joined. X12 = NCCCCC(N[*:1])C(=O)CN1CCCC1C(=O)[*:2]; Pentadecanoyl = CCCCCCCCCCCCCCC(=O)*

Among the test systems are U251 CNS; HCT-15 colon; KM12 colon; NCI/ADR-RES ovarian; NCI-H522 lung; M14 melanoma; SR leukemia; HS 578T breast; K-562 leukemia; HCC-2998 colon.
Common to all, as to assay: inhibition of tumour cell growth, NCI panel, 48 h

In the case of `Cc1cnc2cc(Cl)ccc2c1SCC(=O)O`, the TGI in the test with U251 CNS, in the test with HCT-15 colon, with KM12 colon, in the test with NCI/ADR-RES ovarian, in the test with NCI-H522 lung and with M14 melanoma was > 100 µM in each case. Also, the TGI with SR leukemia, in the test with HS 578T breast and in the test with K-562 leukemia was > 100 µM throughout.
As for `CCCCCCCCCCCCCCC(=O)NC(CCCCN)C(=O)CN1CCCC1C(=O)NCC(=O)NC(Cc1ccccc1)C(=O)N1CCCC1C(=O)NC(CO)C(=O)NC(Cc1ccc(O)cc1)C(=O)NC(CCCCN)C(=O)NC(CC(C)C)C(=O)NC(CCCN=C(N)N)C(=O)N1CCCC1C(=O)NCC(N)=O` (stereo not drawn) (Pentadecanoyl-[X12]GFPSYKLRPG-NH2; configuration not given here), the GI50 with HCC-2998 colon is 17.7 µM; in the test with KM12 colon it was 7.61 µM; in the test with NCI/ADR-RES ovarian it was 20.6 µM; in the test on NCI-H522 lung, 23.1 µM; in the test with M14 melanoma it was 19.2 µM; in the test with SR leukemia, 16.2 µM. Also, the figures for the GI50 in the test with HS 578T breast and with K-562 leukemia were 38.6 µM and 19.5 µM, respectively. In addition, the TGI stood at 35.2 µM in the test on HCC-2998 colon; 38.7 µM in the test on KM12 colon; 43.7 µM in the test on NCI/ADR-RES ovarian; 55.6 µM in the test on NCI-H522 lung; 39.8 µM with M14 melanoma; 50.8 µM with SR leukemia. For the same molecule, the values for the TGI with HS 578T breast and in the test with K-562 leukemia were > 100 µM and 40 µM, respectively.
On to `CCOC(=O)c1sc2[n+](c1C)C(=O)/C(=C/c1ccccc1Cl)S2`, for which the TGI in the test on U251 CNS was 24.4 µM; in the test on HCT-15 colon it was 12.9 µM; with KM12 colon it was 18.2 µM; in the test with NCI/ADR-RES ovarian, 16.1 µM; in the test on NCI-H522 lung it was 7.65 µM; in the test with M14 melanoma, > 43.1 µM. Also, the TGI with SR leukemia was 17 µM; with HS 578T breast, > 73.3 µM; with K-562 leukemia, 24.2 µM.
`CC(=O)OC1COC(n2c(N)c(C#N)c(-c3ccccc3)c(C#N)c2=S)C(OC(C)=O)C1OC(C)=O` (stereo not drawn): the TGI is > 100 µM in the test on U251 CNS; > 100 µM with HCT-15 colon; 90.1 µM and 56.9 µM with HCC-2998 colon; > 100 µM with KM12 colon; > 100 µM in the test with NCI/ADR-RES ovarian; > 100 µM with NCI-H522 lung. In addition, the TGI in the test on M14 melanoma was > 100 µM; in the test with SR leukemia, 46.3 µM and 52.2 µM; in the test on HS 578T breast, > 100 µM.
For the molecule `COc1ccc(C2=C(N)c3cc(OC)ccc3C2=O)cc1`, the TGI in the test on U251 CNS, in the test on HCT-15 colon, with HCC-2998 colon, in the test with KM12 colon, with NCI/ADR-RES ovarian and with NCI-H522 lung was > 100 µM each time. In addition, the TGI was > 100 µM in the test with M14 melanoma, > 100 µM in the test with SR leukemia and 69.9 µM in the test with HS 578T breast.
`CC1C/C(=C\c2ccc(O)c(O)c2)C(=O)/C(=C/c2ccc(O)c(O)c2)C1` (stereo not drawn): the TGI worked out at 18.1 µM in the test with U251 CNS; 25.5 µM in the test with HCT-15 colon; 35.1 µM in the test on HCC-2998 colon; 20.9 µM in the test with KM12 colon; 57.7 µM in the test on NCI/ADR-RES ovarian; 3.58 µM in the test with NCI-H522 lung. Moreover, the TGI with SR leukemia stood at 14 µM; with HS 578T breast, 24.9 µM; in the test on K-562 leukemia, 27.4 µM.
`COc1ccc(Cn2nc(OCc3ccccc3)c3cc([N+](=O)[O-])ccc32)cc1`: the TGI in the test with HCT-15 colon, in the test with HCC-2998 colon, in the test with KM12 colon, with NCI/ADR-RES ovarian, with NCI-H522 lung and in the test on M14 melanoma was > 100 µM throughout. For the same molecule, the TGI in the test on SR leukemia, in the test with HS 578T breast and with K-562 leukemia was > 100 µM throughout.
`N#Cc1c(NC(=S)Nc2ccccc2)sc2c1CCCC2`: the TGI with U251 CNS, in the test with HCT-15 colon, with HCC-2998 colon, with KM12 colon, in the test with NCI/ADR-RES ovarian and with NCI-H522 lung was > 100 µM each time. In addition, the TGI in the test on SR leukemia, with HS 578T breast and in the test on K-562 leukemia was > 100 µM each time.
`O=C1CSC(c2cc3cc(Br)ccc3nc2Cl)N1c1ccc(F)c(Cl)c1` (stereo not drawn): the TGI in the test on HCT-15 colon, in the test on HCC-2998 colon, in the test on KM12 colon, in the test with NCI/ADR-RES ovarian, with NCI-H522 lung and in the test with M14 melanoma was > 50 µM in each case. In addition, the TGI in the test on SR leukemia, in the test with HS 578T breast and in the test with K-562 leukemia was > 50 µM in each case.
Consider `CCOC(=O)CCC1(C(=O)O[C@@H]2C[C@H](C)CC[C@H]2C(C)C)CCCCC1=O` (stereo partly drawn), for which the TGI in the test with U251 CNS, with HCT-15 colon, in the test with KM12 colon, with NCI/ADR-RES ovarian, in the test on NCI-H522 lung and in the test with M14 melanoma was > 100 µM throughout. In addition, the TGI in the test on SR leukemia, with HS 578T breast and in the test with K-562 leukemia was > 100 µM throughout.
With `CC(=O)O[C@H]1CC[C@]2(C=O)[C@H]3CC[C@]4(C)[C@@H](C5=CC(=O)OC5)CC[C@]4(O)[C@@H]3CC[C@]2(O)C1`, the TGI in the test with U251 CNS worked out at 0.559 µM; in the test on HCT-15 colon it was 0.455 µM; in the test on HCC-2998 colon, 1.33 µM; in the test with NCI/ADR-RES ovarian, 0.467 µM; in the test on NCI-H522 lung, 0.357 µM; in the test with M14 melanoma, 1.22 µM. Also, the TGI in the test on SR leukemia, with HS 578T breast and with K-562 leukemia was > 100 µM each time.
As to `COc1ccc(Nc2ccnc3cc(Cl)ccc23)cc1CN(CCCl)CCCl`, the GI50 was 1.79 µM with U251 CNS; 1.85 µM in the test with HCT-15 colon; 1.68 µM in the test with HCC-2998 colon; 2.21 µM in the test with KM12 colon; 3.84 µM in the test with NCI/ADR-RES ovarian; 2.14 µM in the test on M14 melanoma. Moreover, the GI50 with SR leukemia was 0.158 µM; in the test with HS 578T breast it was 3.14 µM; in the test on K-562 leukemia, 1.53 µM. For the same molecule, the TGI with U251 CNS was > 100 µM; in the test on HCT-15 colon it was 6.44 µM; in the test on HCC-2998 colon it was 4.54 µM; with KM12 colon it was 9.75 µM; with NCI/ADR-RES ovarian, > 100 µM; with M14 melanoma, 7.92 µM. Besides, the TGI in the test on SR leukemia is 0.699 µM; with HS 578T breast, > 100 µM; with K-562 leukemia, > 22.7 µM.
Take `O=C(CSCC(=O)N/N=C\c1cccc(Br)c1)N/N=C\c1cccc(Br)c1`: the TGI with U251 CNS is 28.8 µM; in the test with HCT-15 colon, 86.5 µM; in the test on KM12 colon, 32.8 µM; in the test on NCI/ADR-RES ovarian it was 34.1 µM; in the test with NCI-H522 lung it was 51.9 µM; with M14 melanoma, 49.9 µM. In addition, the TGI in the test on SR leukemia amounted to 66.1 µM; in the test with HS 578T breast it was 35.7 µM; with K-562 leukemia it was 68.4 µM.
